Tests used:
[1] = system: spindle assembly checkpoint (phosphorylated histone H3 on serine 10) in HeLa cells; experiment: SAC-Formation - Nocodazole-Induced Assay; type: cell-based; details: Homo sapiens, nocodazole 0.1 μg/ml, 24 h incubation
Source text: The spindle assembly checkpoint assures the proper segregation of chromosomes during mitosis. Upon entry into mitosis, chromosomes begin to condensate which is accompanied by the phosphorylation of histone H3 on serine 10. Dephosphorylation of histone H3 on serine 10 begins in anaphase and ends at early telophase. Accordingly, phosphorylation of histone H3 on serine 10 can be utilized as a marker of cells in mitosis. Nocodazole is a microtubule destabilizing substance. Paclitaxel is a microtubule stabilizing compound. Thus, nocodazole as well as paclitaxel interfere with microtubule dynamics and mobilize the spindle assembly checkpoint. […] The mitotic breakthrough can be detected by the decrease of cells with phosphorylation of histone H3 on serine 10. This decline is used as a marker to determine the capability of compounds of the present invention to induce a mitotic breakthrough. The typical morphological alteration of nuclei with a prematurely completed mitosis after SAC-inhibition can be monitored via image analysis routines supporting those findings.
The nocodazole and paclitaxel variations were used to focus on compounds that are capable of inhibiting a SAC induced by both microtubule destabilization as well as microtubule stabilization. […]
Cultivated cells of the human cervical tumor cell line HeLa (ATCC CCL-2) were plated at a density of 1000 cells/well in a 1536-well microtiter plate in 2 μl PAA Ham's F12 Medium supplemented with 1% (v/v) glutamine, 1% (v/v) penicillin, 1% (v/v) streptomycin and 10% (v/v) fetal calf serum. […] Images were acquired with a PERKIN ELMER OPERA™ High-Content Analysis reader. Images were analyzed with image analysis software MetaXpress™ from Molecular devices utilizing the Mitotic Index application module. In this assay both labels HOECHST 33342 and phosphorylated Histone H3 on serine 10 were measured. […] The raw assay data were further analyzed by four-parametric hill equation using Genedata's Assay Analyzer and Condoseo software.

[2] = system: HeLa cells; experiment: Proliferation assay (crystal violet); type: cell-based; details: Homo sapiens, 96 h, 4 days incubation, read-out: Inhibition of proliferation HeLa IC50
Method: Cultivated tumor cells (cells were ordered from ATCC, except HeLa-MaTu and HeLa-MaTu-ADR, which were ordered from EPO-GmbH, Berlin) were plated at a density of 1000 to 5000 cells/well, depending on the growth rate of the respective cell line, in a 96-well multititer plate in 200 μL of their respective growth medium supplemented 10% fetal calf serum. After 24 hours, the cells of one plate (zero-point plate) were stained with crystal violet (see below), while the medium of the other plates was replaced by fresh culture medium (200 μl), to which the test substances were added in various concentrations (0 μM, as well as in the range of 0.001-10 μM; the final concentration of the solvent dimethyl sulfoxide was 0.5%). The cells were incubated for 4 days in the presence of test substances. Cell proliferation was determined by staining the cells with crystal violet: the cells were fixed by adding 20 μl/measuring point of an 11% glutaric aldehyde solution for 15 minutes at room temperature. After three washing cycles of the fixed cells with water, the plates were dried at room temperature. The cells were stained by adding 100 μl/measuring point of a 0.1% crystal violet solution (pH 3.0). After three washing cycles of the stained cells with water, the plates were dried at room temperature. The dye was dissolved by adding 100 μl/measuring point of a 10% acetic acid solution. Absorption was determined by photometry at a wavelength of 595 nm. The change of cell number, in percent, was calculated by normalization of the measured values to the absorption values of the zero-point plate (=0%) and the absorption of the untreated (0 μm) cells (=100%). The IC50 values were determined by means of a 4 parameter fit.

IC50 [1] [µM]	IC50 [2] [µM]	Structure (SMILES)
0.62	3.4	Cc1noc(Nc2cnc(C(=O)NC3CCN(CC(F)F)CC3)cn2)c1C(=O)Nc1ccc(F)c(F)c1 [Example 1b, N-[1-(2,2-Difluoroethyl)piperidin-4-yl]-5-({4-[(3,4-difluorophenyl)carbamoyl]-3-methyl-1,2-oxazol-5-yl}amino)pyrazine-2-carboxamide]
0.17	0.94	Cc1noc(Nc2cnc(C(F)(F)F)cn2)c1C(=O)Nc1ccc(F)c(F)c1 [Example 1c, N-(3,4-Difluorophenyl)-3-methyl-5-{[5-(trifluoromethyl)pyrazin-2-yl]amino}-1,2-oxazole-4-carboxamide]
0.43	1.9	Cc1noc(Nc2cnc(C(F)(F)F)cn2)c1C(=O)Nc1ccc(OC2CCN(CCC(F)(F)F)CC2)nc1 [Example 1a, 3-Methyl-5-{[5-(trifluoromethyl)pyrazin-2-yl]amino}-N-(6-{[1-(3,3,3-trifluoropropyl)-piperidin-4-yl]oxy}pyridin-3-yl)-1,2-oxazole-4-carboxamide]

Source: patent publication US20170217946A1, “AMINO-SUBSTITUTED ISOXAZOLES” (Bayer Pharma Aktiengesellschaft, priority 2014, published 2017)
